# Results from patent US5354748A, “Oral antibacterial compositions and method for the improvement of gastrointestinal absorption of penem or carbapenem antibiotics” (Suntory Limited, priority 1991, dated 1994).
# Experiments:
# [1] = tested on: epithelial cells isolated from the small intestine of a rat; assay: Degradation of penem in epithelial cells isolated from rat small intestine (free acid of penem remaining by HPLC, with/without cilastatin); format: in vitro ADME; settings: cilastatin 35 μg/ml; 37° C., 60 minutes
# Protocol: Degradation of penems in epithelial cells isolated from the small intestine of a rat was investigated by the following method. Namely, the epithelial cells were isolated from the small intestine of the rat by the citric acid method reported in The Journal of Biological Chemistry, 248, […] (1973).
# After the resultant solution was incubated at 37° C. for 60 minutes, the free acid of the penem was measured by high performance liquid chromatography (HPLC).
# [2] = in vivo; design: species or system Sprague-Dawley male rats; settings: rat, intravenous penem; at each cilastatin dosage
# Protocol: The blood was collected during the period of from 0.1 to 1.5 hours after the administration. The concentrations of the free acid of the penem in plasma samples were measured by high performance liquid chromatography (HPLC) to determine the area under the plasma concentration:time curve (AUC).
compound,measurement,setting,value
"CC1(C)C[C@@H]1C(=O)N/C(=C\CCCCSC[C@H](N)C(=O)O)C(=O)O [cilastatin, reference compound]",Degradation of the penem carboxylate by addition of cilastatin,[1],inhibited
same,"Area under the plasma concentration:time curve upon intravenous administration, compared with single administration",[2],not different
